According to US10590123B2, “Pesticidally active amide heterocyclic derivatives with sulphur containing substituents” (SYNGENTA PARTICIPATIONS AG, priority 2014, dated 2020):

Experiments:
[1] = system: Spodoptera littoralis (Egyptian Cotton Leaf Worm); assay: Example B1: Activity against Spodoptera littoralis, sprayed cotton leaf discs; format: in vivo; details: foliar, 72 h, application rate 200 ppm, L1 larvae, 3 days after infestation, read-out: control in at least one of the three categories (mortality, anti-feedancy or growth inhibition)
Description: Example B1: Activity Against Spodoptera littoralis (Egyptian Cotton Leaf Worm)
Cotton leaf discs were placed on agar in 24-well microtiter plates and sprayed with aqueous test solutions prepared from 10′000 ppm DMSO stock solutions. After drying the leaf discs were infested with five L1 larvae. The samples were assessed for mortality, anti-feedant effect, and growth inhibition in comparison to untreated samples 3 days after infestation. Control of Spodoptera littoralis by a test sample is when at least one of mortality, anti-feedant effect, and growth inhibition is higher than the untreated sample.

[2] = system: Spodoptera littoralis (Egyptian Cotton Leaf Worm); assay: Example B2: Activity against Spodoptera littoralis, systemic via lettuce roots in agar; format: in vivo; details: 144 h, application rate 12.5 ppm, 6 days after infestation, read-out: control in at least one of the three categories (mortality, anti-feedancy or growth inhibition)
Text: Example B2: Activity Against Spodoptera littoralis (Egyptian Cotton Leaf Worm)
Test compounds were applied by pipette from 10′000 ppm DMSO stock solutions into 24-well plates and mixed with agar. Lettuce seeds were placed on the agar and the multi well plate was closed by another plate which contains also agar. After 7 days the roots have absorbed the compound and the lettuce has grown into the lid plate. The lettuce leafs were now cut off into the lid plate. Spodoptera eggs were pipetted through a plastic stencil on a humid gel blotting paper and the plate closed with it.
The samples were assessed for mortality, anti-feedant effect and growth inhibition in comparison to untreated samples 6 days after infestation.

[3] = system: Plutella xylostella (Diamond Back Moth); assay: Example B3: Activity against Plutella xylostella, artificial diet; format: in vivo; details: 120 h, application rate 200 ppm, L2 larvae, 5 days after infestation, read-out: effect in at least one of the two categories (mortality or growth inhibition)
Description: Example B3: Activity Against Plutella xylostella (Diamond Back Moth)
(§1) 24-well microtiter plates with artificial diet were treated with aqueous test solutions prepared from 10′000 ppm DMSO stock solutions by pipetting. After drying, the plates were infested with L2 larvae (10 to 15 per well). The samples were assessed for mortality and growth inhibition in comparison to untreated samples 5 days after infestation.

[4] = system: Diabrotica Balteata (Corn Root Worm); assay: Example B4: Activity against Diabrotica balteata, sprayed maize sprouts; format: in vivo; details: 96 h, application rate 200 ppm, L2 larvae, 4 days after infestation, read-out: effect in at least one of the two categories (mortality or growth inhibition)
Description: Example B4: Activity Against Diabrotica Balteata (Corn Root Worm)
as §1, with “Maize sprouts, placed on an agar layer in 24-well” for “24-well”, “plates” for “plates with artificial diet”, “spraying.” for “pipetting.”, “(6” for “(10”, “10” for “15”, “4” for “5”

[5] = system: Frankliniella occidentalis (Western Flower Thrips); assay: Example B5: Activity against Frankliniella occidentalis, sprayed sunflower leaf discs; format: in vivo; details: foliar, 168 h, application rate 200 ppm, population of mixed ages, 7 days after infestation
Description: Example B5: Activity Against Frankliniella occidentalis (Western Flower Thrips)
(§2) Sunflower leaf discs were placed on agar in 24-well microtiter plates and sprayed with aqueous test solutions prepared from 10′000 ppm DMSO stock solutions. After drying the leaf discs were infested with a Frankliniella population of mixed ages. The samples were assessed for mortality 7 days after infestation.

[6] = system: Euschistus heros (Neotropical Brown Stink Bug); assay: Example B7: Activity against Euschistus heros, sprayed soybean leaf; format: in vivo; details: 120 h, application rate 200 ppm, N-2 nymphs, 5 days after infestation
Description: Example B7: Activity Against Euschistus heros (Neotropical Brown Stink Bug)
Soybean leaf on agar in 24-well microtiter plates were sprayed with aqueous test solutions prepared from 10′000 ppm DMSO stock solutions. After drying the leaf were infested with N-2 nymphs. The samples were assessed for mortality 5 days after infestation.

[7] = system: Myzus persicae (Green Peach Aphid); assay: Example B8: Activity against Myzus persicae, sprayed sunflower leaf discs; format: in vivo; details: foliar, 144 h, application rate 200 ppm, aphid population of mixed ages, 6 days after infestation
Description: Example B8: Activity Against Myzus persicae (Green Peach Aphid)
Sunflower leaf discs were placed on agar in a 24-well microtiter plate and sprayed with aqueous test solutions prepared from 10′000 ppm DMSO stock solutions. After drying, the leaf discs were infested with an aphid population of mixed ages. The samples were assessed for mortality 6 days after infestation.

[8] = system: Thrips tabaci (Onion Thrips); assay: Example B11: Activity against Thrips tabaci, sprayed sunflower leaf discs; format: in vivo; details: foliar, 144 h, application rate 200 ppm, thrips population of mixed ages, 6 days after infestation
Description: Example B11: Activity Against Thrips tabaci (Onion Thrips)
as §2, with “thrips” for “Frankliniella”, “6” for “7”

[9] = system: Tetranychus urticae (Two-Spotted Spider Mite); assay: Example B12: Activity against Tetranychus urticae, sprayed bean leaf discs; format: in vivo; details: foliar, 192 h, application rate 200 ppm, mixed population (mobile stages), 8 days after infestation
Description: Example B12: Activity Against Tetranychus urticae (Two-Spotted Spider Mite)
as §2, with “Bean” for “Sunflower”, “discs” for “discs were placed”, “were” for “and”, “mite” for “Frankliniella”, “on mixed population (mobile stages) 8” for “7”

[10] = system: Bemisia tabaci (Cotton White Fly); assay: Example B6: Activity against Bemisia tabaci, sprayed cotton leaf discs; format: in vivo; details: foliar, 144 h, application rate 200 ppm, adult white flies, 6 days after incubation
Description: Example B6: Activity Against Bemisia tabaci (Cotton White Fly)
Cotton leaf discs were placed on agar in 24-well microtiter plates and sprayed with aqueous test solutions prepared from 10′000 ppm DMSO stock solutions. After drying the leaf discs were infested with adult white flies. The samples were checked for mortality 6 days after incubation.

SMILES: CCS(=O)(=O)c1cc(-c2cccc(Cl)c2)cnc1C(=O)N(C)c1nnc(C(F)(F)F)s1
- melting point: 213 to 215 °C

SMILES: CCS(=O)(=O)c1cc(-c2cc(F)cc(F)c2)cnc1C(=O)N(C)c1nnc(C(F)(F)C(F)(F)F)s1
- melting point: 159 to 161 °C

SMILES: CCS(=O)(=O)c1cc(-c2ccccc2)cnc1C(=O)N(C)c1nnc(C(F)(F)F)s1 [Compound P5, 3-ethylsulfonyl-N-methyl-5-phenyl-N-[5-(trifluoromethyl)-1,3,4-thiadiazol-2-yl]pyridine-2-carboxamide]
- percent control (mortality, anti-feedant effect or growth inhibition) at 200 ppm [1]: ≥ 80%
- percent control (mortality, anti-feedant effect or growth inhibition) at 12.5 ppm [2]: ≥ 80%
- percent effect (mortality or growth inhibition) at 200 ppm [3]: ≥ 80%
- percent effect (mortality or growth inhibition) at 200 ppm [4]: ≥ 80%
- mortality at 200 ppm [5]: ≥ 80%
- mortality at 200 ppm [6]: ≥ 80%
- mortality at 200 ppm [7]: ≥ 80%
- mortality at 200 ppm [8]: ≥ 80%

SMILES: CCS(=O)(=O)c1cc(-c2ccc(C(F)(F)F)cc2)ccc1C(=O)N(C)c1nnc(C(F)(F)F)s1
- melting point: 174 to 176 °C

SMILES: CCS(=O)(=O)c1cc(-c2cc(F)cc(F)c2)cnc1C(=O)Nc1nnc(C(F)(F)C(F)(F)F)s1
- melting point: 242 to 244 °C

SMILES: CCS(=O)(=O)c1cc(-c2cccc(Cl)n2)cnc1C(=O)N(C)c1nnc(C(F)(F)F)s1 [Compound P49]
- percent control (mortality, anti-feedant effect or growth inhibition) at 200 ppm [1]: ≥ 80%
- percent effect (mortality or growth inhibition) at 200 ppm [3]: ≥ 80%
- percent effect (mortality or growth inhibition) at 200 ppm [4]: ≥ 80%
- mortality at 200 ppm [6]: ≥ 80%
- mortality at 200 ppm [9]: ≥ 80%

SMILES: CCS(=O)(=O)c1cc(-c2ccc(Cl)cc2)cnc1C(=O)N(C)c1nnc(C(F)(F)C(F)(F)F)s1 [Compound P14]
- percent control (mortality, anti-feedant effect or growth inhibition) at 200 ppm [1]: ≥ 80%
- percent control (mortality, anti-feedant effect or growth inhibition) at 12.5 ppm [2]: ≥ 80%
- percent effect (mortality or growth inhibition) at 200 ppm [3]: ≥ 80%
- percent effect (mortality or growth inhibition) at 200 ppm [4]: ≥ 80%
- mortality at 200 ppm [6]: ≥ 80%
- mortality at 200 ppm [7]: ≥ 80%
- mortality at 200 ppm [8]: ≥ 80%

SMILES: CCS(=O)(=O)c1cc(-c2ccc(Cl)cc2)cnc1C(=O)N(C)c1nnc(C(F)(F)F)s1 [Compound P2, 5-(4-chlorophenyl)-3-ethylsulfonyl-N-methyl-N-[5-(trifluoromethyl)-1,3,4-thiadiazol-2-yl]pyridine-2-carboxamide]
- percent control (mortality, anti-feedant effect or growth inhibition) at 200 ppm [1]: ≥ 80%
- percent control (mortality, anti-feedant effect or growth inhibition) at 12.5 ppm [2]: ≥ 80%
- percent effect (mortality or growth inhibition) at 200 ppm [3]: ≥ 80%
- percent effect (mortality or growth inhibition) at 200 ppm [4]: ≥ 80%
- mortality at 200 ppm [5]: ≥ 80%
- mortality at 200 ppm [10]: ≥ 80%

SMILES: CCS(=O)(=O)c1cc(-c2ccc(Cl)cn2)cnc1C(=O)N(C)c1nnc(C(F)(F)F)s1 [Compound P52]
- percent control (mortality, anti-feedant effect or growth inhibition) at 200 ppm [1]: ≥ 80%
- percent control (mortality, anti-feedant effect or growth inhibition) at 12.5 ppm [2]: ≥ 80%
- percent effect (mortality or growth inhibition) at 200 ppm [3]: ≥ 80%
- percent effect (mortality or growth inhibition) at 200 ppm [4]: ≥ 80%
- mortality at 200 ppm [5]: ≥ 80%
- mortality at 200 ppm [10]: ≥ 80%
- mortality at 200 ppm [6]: ≥ 80%
- mortality at 200 ppm [7]: ≥ 80%

SMILES: CCSc1cc(-c2ccc(Cl)cc2)cnc1C(=O)Nc1nnc(C(F)(F)C(F)(F)F)s1
- melting point: 184 to 187 °C

SMILES: CCS(=O)(=O)c1cc(C2(C#N)CC2)cnc1C(=O)N(C)c1nnc(C(F)(F)C(F)(F)F)s1 [Compound P20, 5-(1-cyanocyclopropyl)-3-ethylsulfonyl-N-methyl-N-[5-(1,1,2,2,2-pentafluoroethyl)-1,3,4-thiadiazol-2-yl]pyridine-2-carboxamide]
- percent control (mortality, anti-feedant effect or growth inhibition) at 200 ppm [1]: ≥ 80%
- percent control (mortality, anti-feedant effect or growth inhibition) at 12.5 ppm [2]: ≥ 80%
- percent effect (mortality or growth inhibition) at 200 ppm [3]: ≥ 80%
- percent effect (mortality or growth inhibition) at 200 ppm [4]: ≥ 80%
- mortality at 200 ppm [5]: ≥ 80%
- mortality at 200 ppm [10]: ≥ 80%
- mortality at 200 ppm [6]: ≥ 80%
- mortality at 200 ppm [7]: ≥ 80%
- mortality at 200 ppm [8]: ≥ 80%

SMILES: CCS(=O)(=O)c1cc(-c2ncc(Cl)cc2Cl)cnc1C(=O)N(C)c1nnc(C(F)(F)F)s1 [Compound P47]
- percent control (mortality, anti-feedant effect or growth inhibition) at 200 ppm [1]: ≥ 80%
- percent control (mortality, anti-feedant effect or growth inhibition) at 12.5 ppm [2]: ≥ 80%
- percent effect (mortality or growth inhibition) at 200 ppm [3]: ≥ 80%
- percent effect (mortality or growth inhibition) at 200 ppm [4]: ≥ 80%
- mortality at 200 ppm [10]: ≥ 80%
- mortality at 200 ppm [6]: ≥ 80%
- mortality at 200 ppm [7]: ≥ 80%

SMILES: CCS(=O)(=O)c1cc(-c2ccc(F)cc2)cnc1C(=O)N(C)c1nnc(C(F)(F)F)s1 [Compound P32]
- percent control (mortality, anti-feedant effect or growth inhibition) at 200 ppm [1]: ≥ 80%
- percent control (mortality, anti-feedant effect or growth inhibition) at 12.5 ppm [2]: ≥ 80%
- percent effect (mortality or growth inhibition) at 200 ppm [3]: ≥ 80%
- percent effect (mortality or growth inhibition) at 200 ppm [4]: ≥ 80%
- mortality at 200 ppm [5]: ≥ 80%
- mortality at 200 ppm [10]: ≥ 80%
- mortality at 200 ppm [6]: ≥ 80%
- mortality at 200 ppm [7]: ≥ 80%

SMILES: CCSc1cc(-c2ccc(C(F)(F)F)cc2)cnc1C(=O)Nc1nnc(C(F)(F)C(F)(F)F)s1
- melting point: 254 to 256 °C

SMILES: CCS(=O)(=O)c1cc(-c2ccc(C#N)cc2)cnc1C(=O)N(C)c1nnc(C(F)(F)F)s1 [Compound P28]
- percent control (mortality, anti-feedant effect or growth inhibition) at 200 ppm [1]: ≥ 80%
- percent control (mortality, anti-feedant effect or growth inhibition) at 12.5 ppm [2]: ≥ 80%
- percent effect (mortality or growth inhibition) at 200 ppm [3]: ≥ 80%
- percent effect (mortality or growth inhibition) at 200 ppm [4]: ≥ 80%
- mortality at 200 ppm [10]: ≥ 80%
- mortality at 200 ppm [6]: ≥ 80%
- mortality at 200 ppm [7]: ≥ 80%

SMILES: CCS(=O)(=O)c1cc(-c2ncc(F)cc2F)cnc1C(=O)N(C)c1nnc(C(F)(F)F)s1 [Compound P44]
- percent control (mortality, anti-feedant effect or growth inhibition) at 200 ppm [1]: ≥ 80%
- percent control (mortality, anti-feedant effect or growth inhibition) at 12.5 ppm [2]: ≥ 80%
- percent effect (mortality or growth inhibition) at 200 ppm [3]: ≥ 80%
- percent effect (mortality or growth inhibition) at 200 ppm [4]: ≥ 80%
- mortality at 200 ppm [10]: ≥ 80%
- mortality at 200 ppm [6]: ≥ 80%
- mortality at 200 ppm [7]: ≥ 80%

SMILES: CCS(=O)(=O)c1cc(-c2cc(C(F)(F)F)ccn2)cnc1C(=O)N(C)c1nnc(C(F)(F)F)s1 [Compound P65]
- percent control (mortality, anti-feedant effect or growth inhibition) at 200 ppm [1]: ≥ 80%
- percent effect (mortality or growth inhibition) at 200 ppm [3]: ≥ 80%
- percent effect (mortality or growth inhibition) at 200 ppm [4]: ≥ 80%
- mortality at 200 ppm [6]: ≥ 80%
- mortality at 200 ppm [7]: ≥ 80%
- mortality at 200 ppm [8]: ≥ 80%

SMILES: CCS(=O)(=O)c1cc(-c2ccc(Cl)c(Cl)c2)cnc1C(=O)N(C)c1nnc(C(F)(F)F)s1 [Compound P36]
- percent control (mortality, anti-feedant effect or growth inhibition) at 200 ppm [1]: ≥ 80%
- percent effect (mortality or growth inhibition) at 200 ppm [3]: ≥ 80%
- percent effect (mortality or growth inhibition) at 200 ppm [4]: ≥ 80%
- mortality at 200 ppm [6]: ≥ 80%
- mortality at 200 ppm [9]: ≥ 80%
